From patent publication US9510598B2, “Nitrogen-containing heterocyclic compounds for plant disease control” (BAYER CROPSCIENCE AG, priority 2012, dated 2016)
Where two headings read alike, the source gives them in different places.

Key:
Botrytis cinerea = experiment: In vivo preventive test on Botrytis cinerea (grey mould); details: 500 ppm; gherkin plants sprayed 24 hours before contamination; grading 4-5 days after contamination vs control plants
Procedure: Gherkin plants (“Vert petit de Paris” variety), sown in starter cups on a 50/50 peat soil-pozzolana substrate and grown at 24° C., are treated at the Z11 cotyledon stage by spraying with the active ingredient prepared as described above. Plants, used as controls, are treated with the mixture of acetone/tween/DMSO/water not containing the active material. After 24 hours, the plants are contaminated by spraying the cotyledons with an aqueous suspension of cryopreserved Botrytis cinerea spores (50 000 spores per ml). The spores are suspended in a nutrient solution composed of 10 g/L of PDB, 50 g/L of D-Fructose, 2 g/L of NH4NO3 and 1 g/L of KH2PO4. The contaminated gherkin plants are incubated at 17° C. and at 80% relative humidity. Grading (% of efficacy) is carried out 4-5 days after the contamination, in comparison with the control plants.

[1] = type: physicochemical; details: for Log P: method [a]: HPLC/LC-MS on reversed phase at pH 2.7, 0.1% formic acid in water and acetonitrile
Septoria tritici = experiment: In vivo preventive test on Septoria tritici (leaf spot on wheat); details: 500 ppm; wheat plants sprayed 24 hours before contamination; grading 21 to 28 days after contamination vs control plants
Procedure: Wheat plants (“Scipion” variety), sown in starter cups on a 50/50 peat soil-pozzolana substrate and grown at 22° C. (12 h)/20° C. (12 h), are treated at the 1-leaf stage (10 cm height) by spraying with the active ingredient prepared as described above. Plants, used as controls, are treated with the mixture of acetone/tween/DMSO/water not containing the active material. After 24 hours, the plants are contaminated by spraying the leaves with an aqueous suspension of cryopreserved Septoria tritici spores (500 000 spores per ml). […] Grading (% of efficacy) is carried out 21 to 28 days after the contamination, in comparison with the control plants.

[2] = linear gradient 10% to 95% acetonitrile
[3] = method [a]: HPLC/LC-MS on reversed phase at pH 2.7, 0.1% formic acid in water / acetonitrile, linear gradient 10% to 95% acetonitrile
[4] = HPLC on reversed phase columns, method [a]: pH 2.7, 0.1% formic acid in water / acetonitrile, linear gradient 10% to 95% acetonitrile
[5] = method [a]: HPLC/LC-MS on reversed phase at pH 2.7, 0.1% formic acid in water / acetonitrile, gradient 10% to 95% acetonitrile

SMILES | % of efficacy (protection) (Botrytis cinerea) [%] | % of efficacy (protection) (Septoria tritici) [%] | log P [1, 4] | also measured
C#Cc1cnc2ccc(C3=NOC(C(=O)NCCCOCC)(C(F)F)C3)cc2c1 (stereo not shown) [Compound No. 615] | 95 | 79 | – | chromatographic logP ([1]; pH 2.7): 2.73
CCOCCCNC(=O)C1(C)CC(c2cc3cc(Br)cnc3c(F)c2F)=NO1 (stereo not shown) [compound 14] | 100 | – | – | Log P [1, 2]: 2.98^[a]
CCC(C)NC(=O)C1(C)CC(c2cc3cc(Br)cnc3c(F)c2F)=NO1 (stereo not shown) [compound 22] | 93 | 83 | – | Log P [1, 2]: 3.31^[a]
CCOCCCNC(=O)C1(C(C)C)CC(c2ccc3ncc(Br)cc3c2)=NO1 (stereo not shown) [compound 64] | 77 | 70 | – | log P [1, 3]: 3.46^[a]
CCC1(C(=O)NC2CC2)CC(c2ccc3ncc(Br)cc3c2)=NO1 (stereo not shown) [compound 69] | 99 | 97 | – | log P [1, 3]: 2.75^[a]
CCOc1cnc2ccc(C3=NOC(C)(C(=O)NC(C)C)C3)cc2c1 (stereo not shown) [compound 78] | 74 | 97 | – | log P [1, 3]: 2.43^[a]
CC1(C(=O)NCC2CCOC2)CC(c2ccc3ncc(Br)cc3c2)=NO1 (stereo not shown) [compound 127] | 80 | – | – | log P [1, 3]: 2.2^[a]
C#Cc1cnc2ccc(C3=NOC(C)(C(=O)NCC4(C)CCCO4)C3)cc2c1 (stereo not shown) [compound 128] | 98 | 83 | – | log P [1, 3]: 2.42^[a]
CC1(C(=O)NCC2CCCO2)CC(c2ccc3ncc(Br)cc3c2)=NO1 (stereo not shown) [compound 130] | 89 | – | – | log P [1, 3]: 2.45^[a]
CC1(CNC(=O)C2(C)CC(c3ccc4ncc(Br)cc4c3)=NO2)CCCO1 (stereo not shown) [compound 131] | 92 | 83 | – | log P [1, 3]: 2.73^[a]
CCn1cc(CNC(=O)C2(C)CC(c3ccc4ncc(SC)cc4c3)=NO2)c(C)n1 (stereo not shown) [compound 147] | 88 | – | – | log P [1, 3]: 2.09^[a]
C#Cc1cnc2ccc(C3=NOC(C)(C(=O)NCc4cnc(C)cn4)C3)cc2c1 (stereo not shown) [compound 167] | 100 | 100 | – | log P [1, 3]: 1.98^[a]
C#Cc1cnc2ccc(C3=NOC(C)(C(=O)NCc4ccccc4Cl)C3)cc2c1 (stereo not shown) [compound 168] | 99 | 71 | – | log P [1, 3]: 3.23^[a]
C#Cc1cnc2ccc(C3=NOC(C)(C(=O)NCc4cnn(-c5ccccc5)c4)C3)cc2c1 (stereo not shown) [compound 186] | 92 | 71 | – | log P [1, 3]: 2.78^[a]
C#Cc1cnc2ccc(C3=NOC(C)(C(=O)NCc4cccc(OC(F)(F)F)c4)C3)cc2c1 (stereo not shown) [compound 190] | 89 | 71 | – | log P [1, 3]: 3.48^[a]
C#Cc1cnc2ccc(C3=NOC(C)(C(=O)NCc4cc(Cl)cc(Cl)c4)C3)cc2c1 (stereo not shown) [compound 193] | 74 | – | – | log P [1, 3]: 3.71^[a]
CC1(C(=O)NCc2cnn(-c3ccccc3)c2)CC(c2ccc3ncc(Br)cc3c2)=NO1 (stereo not shown) [compound 202] | 87 | – | – | log P [1, 3]: 3.11^[a]
C#Cc1cnc2ccc(C3=NOC(C)(C(=O)NC4COC4)C3)cc2c1 (stereo not shown) [compound 238] | 82 | 93 | 1.75^[a] | –
CC(C)NC(=O)C1(C2CC2)CC(c2ccc3ncc(Br)cc3c2)=NO1 (stereo not shown) [compound 267] | 85 | 93 | 3.25[a] | –
CCn1cc(CNC(=O)C2(C3CC3)CC(c3ccc4ncc(Br)cc4c3)=NO2)c(C)n1 (stereo not shown) [compound 268] | 93 | – | 2.73[a] | –
C#Cc1cnc2ccc(C3=NOC(C)(C(=O)NC(C)c4sc(C)nc4C)C3)cc2c1 (stereo not shown) [compound 333] | – | 98 | 2.20[a] | –
C#Cc1cnc2ccc(C3=NOC(C)(C(=O)NC(C)c4ccncc4)C3)cc2c1 (stereo not shown) [compound 335] | – | 78 | 1.28[a] | –
C#Cc1cnc2ccc(C3=NOC(C)(C(=O)NC(C)c4cccc5ccccc45)C3)cc2c1 (stereo not shown) [compound 339] | – | 78 | 3.85[a] | –
C#Cc1cnc2ccc(C3=NOC(C)(C(=O)NC(CC)c4cn(CC)nc4C)C3)cc2c1 (stereo not shown) [compound 347] | – | 100 | 2.52[a] | –

SMILES | % of efficacy (protection) (Botrytis cinerea) [%] | % of efficacy (protection) (Septoria tritici) [%] | log P [1, 4] | also measured
C#Cc1cnc2ccc(C3=NOC(C)(C(=O)NC(C)c4ccccc4Cl)C3)cc2c1 (stereo not shown) [compound 349] | – | 94 | 3.42[a] | –
C#Cc1cnc2ccc(C3=NOC(C)(C(=O)NC(C)c4ccccc4)C3)cc2c1 (stereo not shown) [compound 350] | – | 100 | 3.06[a] | –
C#CCCNC(=O)C1(C)CC(c2ccc3ncc(Br)cc3c2)=NO1 (stereo not shown) [compound 353] | – | 94 | 2.52[a] | –
C#Cc1cnc2ccc(C3=NOC(C)(C(=O)NC(c4cccc(Cl)c4)C(F)(F)F)C3)cc2c1 (stereo not shown) [compound 357] | – | 78 | 3.94[a] | –
C#Cc1cnc2ccc(C3=NOC(C)(C(=O)NC(CN4CCCC4)C4CC4)C3)cc2c1 (stereo not shown) [compound 361] | – | 78 | 1.37[a] | –
COC1(C(=O)N(C)C)CC(c2ccc3ncc(Br)cc3c2)=NO1 (stereo not shown) [compound 396] | – | 97 | – | log P [1, 5]: 2.51[a]
COC1(C(=S)NC(C)C)CC(c2ccc3ncc(Br)cc3c2)=NO1 (stereo not shown) [compound 410] | – | 100 | – | log P [1, 5]: 3.69[a]
CCOC1(C(=O)NCc2cn(CC)nc2C)CC(c2ccc3ncc(Br)cc3c2)=NO1 (stereo not shown) [compound 416] | – | 100 | – | log P [1, 5]: 1.95[a]
CCOc1cnc2ccc(C3=NOC(C)(C(=O)NCc4cn(CC)nc4C)C3)cc2c1 (stereo not shown) [compound 417] | – | 100 | – | log P [1, 5]: 2.09[a]
C#Cc1cnc2ccc(C3=NOC(OC)(C(=O)N(OC)C(C)CC)C3)cc2c1 (stereo not shown) [compound 466] | – | 97 | – | log P [1, 5]: 3.31[a]
C#Cc1cnc2ccc(C3=NOC(OC)(C(=O)N(C(C)C)C4CC4)C3)cc2c1 (stereo not shown) [compound 467] | – | 97 | – | log P [1, 5]: 3.35[a]
C#Cc1cnc2ccc(C3=NOC(OC)(C(=O)N(OC)C(C)C)C3)cc2c1 (stereo not shown) [compound 468] | – | 100 | – | log P [1, 5]: 2.96[a]
CCn1cc(CNC(=O)C2(C)CC(c3ccc4nc(OC)c(I)cc4c3)=NO2)c(C)n1 (stereo not shown) [compound 472] | – | 75 | – | log P [1, 5]: 3.11[a]
C#Cc1cnc2ccc(C3=NOC(OC)(C(=O)NCC(O)CO)C3)cc2c1 (stereo not shown) [compound 473] | – | 75 | – | log P [1, 5]: 1.44[a]
CCn1cc(NC(=O)C2(C)CC(c3ccc4ncc(Br)cc4c3)=NO2)c(C)n1 (stereo not shown) [compound 489] | – | 93 | – | log P [1, 5]: 2.50[a]
C#Cc1cc2cc(C3=NOC(C)(C(=O)NCc4cn(CC)nc4C)C3)ccc2nc1OC (stereo not shown) [compound 490] | – | 88 | – | log P [1, 5]: 2.55[a]
C#Cc1cc2cc(C3=NOC(C)(C(=O)NCc4cn(CC)nc4C)C3)ccc2nc1C#N (stereo not shown) [compound 491] | – | 75 | – | log P [1, 5]: 2.39[a]
C#Cc1cnc2ccc(C3=NOC(CC)(C(=S)NCc4cn(CC)nc4C)C3)cc2c1 (stereo not shown) [compound 507] | – | 97 | – | log P [1, 5]: 3.31[a]
C#Cc1cnc2ccc(C3=NOC(OC)(C(=O)NC(C)(C)c4ccon4)C3)cc2c1 (stereo not shown) [compound 509] | – | 97 | – | log P [1, 5]: 2.52[a]
C=C(C)C1(C(=O)NC(C)C)CC(c2ccc3ncc(Br)cc3c2)=NO1 (stereo not shown) [compound 517] | 80 | – | 3.41[a] | –
Cc1cnc(CNC(=O)C2(C)CC(c3cc(Cl)c4ncc(Br)cc4c3)=NO2)cn1 (stereo not shown) [compound 556] | – | 97 | 2.64[a] | –
CCOCCCNC(=O)C1(C(C)O)CC(c2ccc3ncc(Br)cc3c2)=NO1 (stereo not shown) [compound 560] | – | 97 | 2.27[a] | –
CC1(C)OCC(CNC(=O)C2(C(F)F)CC(c3ccc4ncc(I)cc4c3)=NO2)O1 (stereo not shown) [compound 618] | – | 93 | 3.06[a] | –
C=CC1(C(=O)NCC2COC(C)(C)O2)CC(c2ccc3ncc(Br)cc3c2)=NO1 (stereo not shown) [compound 732] | – | 100 | – | log P ([1]; HPLC on reversed phase columns, method [a]: pH 2.7, 0.1% formic acid in water and acetonitrile, linear gradient 10% to 95% acetonitrile): 2.98[a]
